# Biological target: T1, Membrane-associated tyrosine- and threonine-specific cdc2-inhibitory kinase (Homo sapiens, UniProt Q99640)
# T1 sequence (Q99640 whole entry): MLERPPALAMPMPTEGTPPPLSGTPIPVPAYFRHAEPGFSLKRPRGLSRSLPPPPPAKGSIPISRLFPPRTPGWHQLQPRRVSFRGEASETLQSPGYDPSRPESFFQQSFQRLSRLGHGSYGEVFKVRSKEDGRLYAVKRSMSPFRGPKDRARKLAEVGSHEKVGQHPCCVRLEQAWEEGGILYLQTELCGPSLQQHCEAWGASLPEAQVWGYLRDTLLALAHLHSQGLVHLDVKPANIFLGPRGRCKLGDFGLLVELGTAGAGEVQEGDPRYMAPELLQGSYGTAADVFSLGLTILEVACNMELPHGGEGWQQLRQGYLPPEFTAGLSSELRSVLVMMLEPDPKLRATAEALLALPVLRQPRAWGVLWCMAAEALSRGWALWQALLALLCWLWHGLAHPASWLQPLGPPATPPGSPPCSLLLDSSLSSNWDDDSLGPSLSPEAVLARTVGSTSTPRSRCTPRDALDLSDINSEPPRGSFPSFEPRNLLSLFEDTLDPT
# Experiment: PKMYT1 HTRF Assay
# Method: Compound serial dilution is performed by Echo, and the final concentrations vary from 10 μM to 0.5 nM. This was filled by the addition of 5 μL/well of Enzyme solution to the assay plate containing the compound. The plate was centrifuged at 1000 rpm for 1 minute, and incubate 15 minutes at 25 […]. Then 5 μL/well of tracer solution (Tracer 178) was added to initiate the reaction, and incubate for 60 minutes at 25° C. Next 5 μL GST-Tb was added into the assay plate, the plate was centrifuged at 1000 rpm for 1 minute, and incubate for 15 minutes at 25 […]. The assay plate was read on Envision.
row,SMILES,IC50 [nM]
1,"Cc1ccc(O)c(C)c1-c1cnc2[nH]c(-c3cnc4cn[nH]c4c3)cc2c1C#N [US20250136596, Example 124]",< 10
2,"Cc1ccc(O)c(C)c1-c1cnc2[nH]c(-c3cncc(C#N)c3)cc2c1C#N [US20250136596, Example 61]",< 10
3,"Cc1ncc(-c2cc3c(Cl)c(-c4c(C)ccc(O)c4C)cnc3[nH]2)cn1 [US20250136596, Example 23]",< 10
4,"CNc1ncc(-c2cc3c(C#N)c(-c4c(C)ccc(O)c4C)cnc3[nH]2)cn1 [US20250136596, Example 41]",< 10
5,"COc1ncc(-c2cc3c(C#N)c(-c4c(C)ccc(O)c4C)cnc3[nH]2)cn1 [US20250136596, Example 51]",< 10
6,"Cc1ccc(O)c(C)c1-c1cnc2[nH]c(-c3cnc(N)c(C(F)(F)F)c3)cc2c1C#N [US20250136596, Example 62]",< 10
7,"Cc1ncc(-c2[nH]c3ncc(-c4c(C)ccc(O)c4C)c(C#N)c3c2C)cn1 [US20250136596, Example 107]",< 10
8,"Cc1ccc(O)c(C)c1-c1cnc2[nH]c(-c3cnc(S(C)(=O)=O)nc3)cc2c1C#N [US20250136596, Example 95]",< 10
9,"Cc1ncc(-c2[nH]c3ncc(-c4c(C)ccc(O)c4C)c(C#N)c3c2F)cn1 [US20250136596, Example 35]",< 10
